Measurements as given in US11053204B2, “Pyrimidinyloxy benzene derivatives as herbicides” (FMC Corporation, priority 2015, dated 2021).

Experiments:
Type in all cases: in vivo
[1] = tested on: blackgrass (Alopecurus myosuroides); assay: Test A postemergence, visual injury rating; details: 0 is no effect, 100 is complete control; for Blackgrass plant response rating: 31 g ai/ha, 0 to 100 scale, approximately 10 days; for Blackgrass plant response rating (0 to 100 scale): 125 g ai/ha
Summary of the method: (§1)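 Scoring: eye-based comparison with untreated controls, 0 for no effect through 100 for complete control, at about day 10. Treatments: directed soil spray preemergence; foliar spray postemergence on 2–10 cm plants at the one- to two-leaf stage. Medium: loam soil with sand.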

corn (Zea mays) = assay: Test A postemergence, visual injury rating; details: 0 is no effect, 100 is complete control; for Corn plant response rating: 31 g ai/ha, 0 to 100 scale, approximately 10 days; for Corn plant response rating (0 to 100 scale): 125 g ai/ha
Summary of the method: as §1

[2] = tested on: ragweed (common ragweed, Ambrosia elatior); assay: Test A postemergence, visual injury rating; details: 0 is no effect, 100 is complete control; for Ragweed plant response rating: 0 to 100 scale, approximately 10 days
Summary of the method: as §1

[3] = tested on: barnyardgrass (Echinochloa crus-galli); assay: Test A postemergence, visual injury rating; details: 0 is no effect, 100 is complete control; for Barnyardgrass plant response rating: 31 g ai/ha, 0 to 100 scale, approximately 10 days; for Barnyardgrass plant response rating (0 to 100 scale): 125 g ai/ha
Summary of the method: as §1

[4] = tested on: pigweed (Amaranthus retroflexus); assay: Test A postemergence, visual injury rating; details: 0 is no effect, 100 is complete control; for Pigweed plant response rating: 0 to 100 scale, approximately 10 days
Summary of the method: as §1

[5] = tested on: Italian ryegrass (Lolium multiflorum); assay: Test A postemergence, visual injury rating; details: 0 is no effect, 100 is complete control; for Ryegrass, Italian plant response rating: 0 to 100 scale, approximately 10 days
Summary of the method: as §1

[6] = tested on: galium (catchweed bedstraw, Galium aparine); assay: Test A postemergence, visual injury rating; details: 0 is no effect, 100 is complete control; for Galium plant response rating: 31 g ai/ha, 0 to 100 scale, approximately 10 days; for Galium plant response rating (0 to 100 scale): 125 g ai/ha
Summary of the method: as §1

[7] = tested on: wheat (Triticum aestivum); assay: Test A postemergence, visual injury rating; details: 0 is no effect, 100 is complete control; for Wheat plant response rating: 0 to 100 scale, approximately 10 days
Summary of the method: as §1

[8] = tested on: giant foxtail (Setaria faberii); assay: Test A postemergence, visual injury rating; details: 0 is no effect, 100 is complete control; for Foxtail, Giant plant response rating: 31 g ai/ha, 0 to 100 scale, approximately 10 days; for Foxtail, Giant plant response rating (0 to 100 scale): 125 g ai/ha
Summary of the method: as §1

kochia (Kochia scoparia) [9] = assay: Test A postemergence, visual injury rating; details: 0 is no effect, 100 is complete control; for Kochia plant response rating: 0 to 100 scale, approximately 10 days
Summary of the method: as §1

[10] = tested on: ragweed (common ragweed, Ambrosia elatior); assay: Test A preemergence, visual injury rating; details: for Plant response rating, Ragweed: 31 g ai/ha, 0 to 100 scale, 0 no effect, 100 complete control; for Ragweed plant response rating: 125 g ai/ha, 0 to 100 scale (0 no effect, 100 complete control)
Summary of the method: as §1

[11] = tested on: barnyardgrass (Echinochloa crus-galli); assay: Test A preemergence, visual injury rating; details: for Plant response rating, Barnyardgrass: 31 g ai/ha, 0 to 100 scale, 0 no effect, 100 complete control; for Barnyardgrass plant response rating: 125 g ai/ha, 0 to 100 scale (0 no effect, 100 complete control)
Summary of the method: as §1

[12] = tested on: pigweed (Amaranthus retroflexus); assay: Test A preemergence, visual injury rating; details: for Plant response rating, Pigweed: 31 g ai/ha, 0 to 100 scale, 0 no effect, 100 complete control; for Pigweed plant response rating: 125 g ai/ha, 0 to 100 scale (0 no effect, 100 complete control)
Summary of the method: as §1

[13] = tested on: Italian ryegrass (Lolium multiflorum); assay: Test A preemergence, visual injury rating; details: for Plant response rating, Ryegrass, Italian: 31 g ai/ha, 0 to 100 scale, 0 no effect, 100 complete control; for Ryegrass, Italian plant response rating: 125 g ai/ha, 0 to 100 scale (0 no effect, 100 complete control)
Summary of the method: as §1

[14] = tested on: giant foxtail (Setaria faberii); assay: Test A preemergence, visual injury rating; details: for Plant response rating, Foxtail, Giant: 31 g ai/ha, 0 to 100 scale, 0 no effect, 100 complete control; for Foxtail, Giant plant response rating: 125 g ai/ha, 0 to 100 scale (0 no effect, 100 complete control)
Summary of the method: as §1

kochia (Kochia scoparia) [15] = assay: Test A preemergence, visual injury rating; details: for Plant response rating, Kochia: 31 g ai/ha, 0 to 100 scale, 0 no effect, 100 complete control; for Kochia plant response rating: 125 g ai/ha, 0 to 100 scale (0 no effect, 100 complete control)
Summary of the method: as §1

[16] = tested on: barnyardgrass (Echinochloa crus-galli); assay: Test B flooded paddy test, plant response rating; details: 250 g ai/ha; Flood; scale of 0 to 100 where 0 is no effect and 100 is complete control; 13 to 15 days
Summary of the method: (§2)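 Flooded 3 cm over soil; compound into paddy water; depth kept constant. Greenhouse 13–15 d.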

rice (Oryza sativa) = assay: Test B flooded paddy test, plant response rating; details: 250 g ai/ha; Flood; scale of 0 to 100 where 0 is no effect and 100 is complete control; 13 to 15 days
Summary of the method: as §2

[17] = tested on: ducksalad (Heteranthera limosa); assay: Test B flooded paddy test, plant response rating; details: 250 g ai/ha; Flood; scale of 0 to 100 where 0 is no effect and 100 is complete control; 13 to 15 days
Summary of the method: as §2

[18] = tested on: sedge, umbrella (small-flower umbrella sedge, Cyperus difformis); assay: Test B flooded paddy test, plant response rating; details: 250 g ai/ha; Flood; scale of 0 to 100 where 0 is no effect and 100 is complete control; 13 to 15 days
Summary of the method: as §2

Compound	Blackgrass plant response rating [1]	Blackgrass plant response rating (0 to 100 scale) [1]	Corn plant response rating (corn (Zea mays))	Corn plant response rating (0 to 100 scale) (corn (Zea mays))	Ragweed plant response rating ([2]; 31 g ai/ha)	Barnyardgrass plant response rating [3]	Barnyardgrass plant response rating (0 to 100 scale) [3]	Pigweed plant response rating ([4]; 31 g ai/ha)	Ryegrass, Italian plant response rating ([5]; 31 g ai/ha)	Galium plant response rating [6]	Galium plant response rating (0 to 100 scale) [6]	Wheat plant response rating ([7]; 31 g ai/ha)	Foxtail, Giant plant response rating [8]	Foxtail, Giant plant response rating (0 to 100 scale) [8]	Kochia plant response rating (kochia (Kochia scoparia) [9]; 31 g ai/ha)	Plant response rating, Ragweed [10]	Ragweed plant response rating [10]	Plant response rating, Barnyardgrass [11]	Barnyardgrass plant response rating [11]	Plant response rating, Pigweed [12]	also measured
CCCCC(=O)c1c(C#N)cccc1Oc1ncc(Cl)cn1 [Compound 68]	10	30	10	20	0	10	30	20	0	20	60	0	20	30	20	0	0	10	70	20	Ragweed plant response rating (0 to 100 scale) ([2]; 125 g ai/ha): 20; Pigweed plant response rating (0 to 100 scale) ([4]; 125 g ai/ha): 90; Ryegrass, Italian plant response rating (0 to 100 scale) ([5]; 125 g ai/ha): 0; Wheat plant response rating (0 to 100 scale) ([7]; 125 g ai/ha): 0; Kochia plant response rating (0 to 100 scale) (kochia (Kochia scoparia) [9]; 125 g ai/ha): 40; Pigweed plant response rating [12]: 80; Plant response rating, Ryegrass, Italian [13]: 0; Ryegrass, Italian plant response rating [13]: 0; Plant response rating, Foxtail, Giant [14]: 10; Foxtail, Giant plant response rating [14]: 80; Plant response rating, Kochia (kochia (Kochia scoparia) [15]): 0; Kochia plant response rating (kochia (Kochia scoparia) [15]): 30; Plant response rating, Barnyardgrass [16]: 0; Plant response rating, Rice (rice (Oryza sativa)): 0; Plant response rating, Ducksalad [17]: 0; Plant response rating, Sedge, Umbrella [18]: 0
CC(=NOC(C)C)c1c(C#N)cccc1Oc1ncc(Cl)cn1 [Compound 69]	10	30	0	20	0	10	70	40	0	40	60	0	20	30	20	0	0	70	90	40	Ragweed plant response rating ([2]; 125 g ai/ha): 0; Pigweed plant response rating ([4]; 125 g ai/ha): 80; Ryegrass, Italian plant response rating ([5]; 125 g ai/ha): 0; Wheat plant response rating ([7]; 125 g ai/ha): 0; Kochia plant response rating (kochia (Kochia scoparia) [9]; 125 g ai/ha): 40; Pigweed plant response rating [12]: 100; Plant response rating, Ryegrass, Italian [13]: 0; Ryegrass, Italian plant response rating [13]: 0; Plant response rating, Foxtail, Giant [14]: 40; Foxtail, Giant plant response rating [14]: 70; Plant response rating, Kochia (kochia (Kochia scoparia) [15]): 0; Kochia plant response rating (kochia (Kochia scoparia) [15]): 30; Plant response rating, Barnyardgrass [16]: 0; Plant response rating, Rice (rice (Oryza sativa)): 20; Plant response rating, Ducksalad [17]: 75; Plant response rating, Sedge, Umbrella [18]: 80
